Test results reported in patent publication US20260000668A1 (priority 2021, published 2026).
In brackets after ≈: the same amount, converted by molar mass. Where two headings read alike, the source gives them in different places.

Key:
[1] = system: SARS-Related Coronavirus 2 Isolate USA-WA1/2020; format: cell-based, SARS-COV-2; details: treatment 2 hours pre-infection; for Mean Log10 Reduction: Vero E6, MOI=0.1, 2 days, vs untreated control

Compound	Mean Log10 Reduction ([1]; 10 μM) [Log10]	solubility (physchem; organic solvent or mixture) [mg/mL]	Mean Log10 Reduction ([1]; 1 μM) [Log10]	Mean Log10 Reduction ([1]; 2 μM) [Log10]	Mean Log10 Reduction ([1]; 4 μM) [Log10]	Mean Log10 Reduction ([1]; 8 μM) [Log10]	antiviral activity against SARS-COV-2 ([1]; 1-8 μM, Vero E6)	solubility (physchem; water) [mg/mL]
CCC(CC)COC(=O)[C@H](C)N[P@](=O)(OC[C@H]1O[C@@](C#N)(c2ccc3c(N)ncnn23)[C@H](O)[C@@H]1O)Oc1ccccc1 [Remdesivir, reference compound]	5.72	100 (≈ 166 mM)	–	–	–	–	–	–
CN1CCN(CCCc2ccc(C(c3ccccc3)C34CC5CC(CC(C5)C3)C4)cc2)CC1 (stereo not drawn) [AV1066, 1-Methyl-4-[3-[4-(phenyltricyclo[3.3.1.1^3,7]dec-1-ylmethyl)phenyl]propyl]piperazine]	–	21 (≈ 47.4 mM)	0.00	0.10	1.33	4.89	exhibited antiviral activity against SARS-COV-2 in a dose dependent manner	4 (≈ 9.04 mM)
